Test results: ChEMBL document CHEMBL5579877, “Design and Evaluation of 3-Phenyloxetane Derivative Agonists of the Glucagon-Like Peptide-1 Receptor” (J Med Chem, 2024)
The source made the active and inactive calls. No cut-off for these calls is given here.

Assays:
[1] = AUC in ICR mouse at 5 mg/kg, po by LC-MS/MS analysis; type: ADME, organism-based; settings: in vivo
[2] = Drug distribution in rat stomach at 5 mg/kg, po; type: ADME, organism-based; settings: in vivo
[3] = Efflux ratio of permeability across basolateral to apical side over apical to basolateral side in human Caco-2; type: ADME, cell-based
[4] = target: T1, Glucagon-like peptide 1 receptor (Homo sapiens, UniProt P43220); assay: Agonist activity at GLP-1R (unknown origin) assessed as beta-arrestin 2 recruitment; type: functional
T1 sequence (P43220 whole entry): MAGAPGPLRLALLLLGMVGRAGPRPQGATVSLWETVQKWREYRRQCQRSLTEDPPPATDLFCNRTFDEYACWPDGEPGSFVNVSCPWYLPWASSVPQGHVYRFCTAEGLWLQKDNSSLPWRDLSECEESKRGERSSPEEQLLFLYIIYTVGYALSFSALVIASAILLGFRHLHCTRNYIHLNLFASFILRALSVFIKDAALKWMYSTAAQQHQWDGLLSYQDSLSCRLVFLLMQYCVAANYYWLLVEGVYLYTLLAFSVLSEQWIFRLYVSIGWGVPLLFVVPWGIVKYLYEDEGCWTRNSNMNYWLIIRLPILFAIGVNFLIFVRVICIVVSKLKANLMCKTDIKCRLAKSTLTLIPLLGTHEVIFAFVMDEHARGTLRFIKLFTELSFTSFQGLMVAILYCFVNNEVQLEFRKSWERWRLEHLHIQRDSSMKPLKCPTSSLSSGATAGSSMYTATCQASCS

Mus musculus = assay: Reduction in blood glucose level in human GLP-1R knock-in mouse at 1 mg/kg, po pretreated for 1 to 4 hrs followed by glucose addition and measured upto 120 mins by glucose meter; type: functional, organism-based; settings: time 180-360 min
[5] = target: T2, Glucagon-like peptide 1 receptor (Rattus norvegicus) (UniProt P32301); assay: Activation of rat GLP-1R
T2 sequence (whole entry): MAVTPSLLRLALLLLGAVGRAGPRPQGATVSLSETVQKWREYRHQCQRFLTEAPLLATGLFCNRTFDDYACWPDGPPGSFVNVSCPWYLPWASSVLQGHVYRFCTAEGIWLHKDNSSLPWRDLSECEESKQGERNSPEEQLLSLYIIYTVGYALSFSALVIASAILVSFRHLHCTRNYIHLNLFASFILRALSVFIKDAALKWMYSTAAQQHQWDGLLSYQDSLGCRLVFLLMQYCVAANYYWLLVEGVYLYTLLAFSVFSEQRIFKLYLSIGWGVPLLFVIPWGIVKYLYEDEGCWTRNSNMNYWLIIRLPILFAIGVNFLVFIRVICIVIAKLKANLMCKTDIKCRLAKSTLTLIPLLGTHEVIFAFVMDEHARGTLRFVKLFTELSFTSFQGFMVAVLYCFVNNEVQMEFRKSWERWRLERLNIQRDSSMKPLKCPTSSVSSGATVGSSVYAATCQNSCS

[6] = Cmax in ICR mouse at 5 mg/kg, po by LC-MS/MS analysis; type: ADME, organism-based; settings: in vivo
[7] = target: T3, Glucagon-like peptide 1 receptor (Mus musculus) (UniProt O35659); assay: Activation of mouse GLP-1R
T3 sequence (whole entry): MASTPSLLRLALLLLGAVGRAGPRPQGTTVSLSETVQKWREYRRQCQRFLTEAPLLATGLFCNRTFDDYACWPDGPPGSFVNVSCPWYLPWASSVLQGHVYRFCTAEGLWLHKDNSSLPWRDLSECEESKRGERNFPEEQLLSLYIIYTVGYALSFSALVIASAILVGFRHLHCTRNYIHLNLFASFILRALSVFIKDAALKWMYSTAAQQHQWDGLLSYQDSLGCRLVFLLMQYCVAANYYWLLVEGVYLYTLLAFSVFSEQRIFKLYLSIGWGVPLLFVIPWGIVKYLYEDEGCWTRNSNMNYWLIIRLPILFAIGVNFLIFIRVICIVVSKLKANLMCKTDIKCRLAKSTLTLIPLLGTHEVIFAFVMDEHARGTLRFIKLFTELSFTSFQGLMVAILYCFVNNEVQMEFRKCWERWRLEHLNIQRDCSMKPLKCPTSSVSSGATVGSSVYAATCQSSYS

Cytochrome P450 3A4 [8] = target: T4, Cytochrome P450 3A4 (Homo sapiens, UniProt P08684); assay: Inhibition of CYP3A4 in human liver microsomes using testosterone as substrate preincubated for 5 mins followed by NADPH addition and measured after 5 mins by LC-MS/MS analysis; type: ADME, Microsome
T4 sequence (P08684 whole entry): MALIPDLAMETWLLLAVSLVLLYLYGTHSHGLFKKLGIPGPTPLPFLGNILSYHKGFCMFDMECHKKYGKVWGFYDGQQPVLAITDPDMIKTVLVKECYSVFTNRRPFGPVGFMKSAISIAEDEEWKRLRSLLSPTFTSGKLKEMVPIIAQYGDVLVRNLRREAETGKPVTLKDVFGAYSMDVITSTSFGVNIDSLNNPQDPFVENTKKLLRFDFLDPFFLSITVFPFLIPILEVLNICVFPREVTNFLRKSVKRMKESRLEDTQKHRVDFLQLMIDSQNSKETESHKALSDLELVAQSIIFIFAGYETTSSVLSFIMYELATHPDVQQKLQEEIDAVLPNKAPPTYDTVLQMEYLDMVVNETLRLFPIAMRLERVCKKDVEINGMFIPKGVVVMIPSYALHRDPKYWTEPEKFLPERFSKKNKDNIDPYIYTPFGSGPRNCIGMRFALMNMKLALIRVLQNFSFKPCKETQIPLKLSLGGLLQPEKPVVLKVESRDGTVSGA

hERG (KCNH2) [9] = target: T5, hERG (KCNH2) (Homo sapiens, UniProt Q12809); assay: Inhibition of human ERG at 1 uM by whole cell patch clamp method relative to control; type: toxicity
T5 sequence (Q12809 whole entry): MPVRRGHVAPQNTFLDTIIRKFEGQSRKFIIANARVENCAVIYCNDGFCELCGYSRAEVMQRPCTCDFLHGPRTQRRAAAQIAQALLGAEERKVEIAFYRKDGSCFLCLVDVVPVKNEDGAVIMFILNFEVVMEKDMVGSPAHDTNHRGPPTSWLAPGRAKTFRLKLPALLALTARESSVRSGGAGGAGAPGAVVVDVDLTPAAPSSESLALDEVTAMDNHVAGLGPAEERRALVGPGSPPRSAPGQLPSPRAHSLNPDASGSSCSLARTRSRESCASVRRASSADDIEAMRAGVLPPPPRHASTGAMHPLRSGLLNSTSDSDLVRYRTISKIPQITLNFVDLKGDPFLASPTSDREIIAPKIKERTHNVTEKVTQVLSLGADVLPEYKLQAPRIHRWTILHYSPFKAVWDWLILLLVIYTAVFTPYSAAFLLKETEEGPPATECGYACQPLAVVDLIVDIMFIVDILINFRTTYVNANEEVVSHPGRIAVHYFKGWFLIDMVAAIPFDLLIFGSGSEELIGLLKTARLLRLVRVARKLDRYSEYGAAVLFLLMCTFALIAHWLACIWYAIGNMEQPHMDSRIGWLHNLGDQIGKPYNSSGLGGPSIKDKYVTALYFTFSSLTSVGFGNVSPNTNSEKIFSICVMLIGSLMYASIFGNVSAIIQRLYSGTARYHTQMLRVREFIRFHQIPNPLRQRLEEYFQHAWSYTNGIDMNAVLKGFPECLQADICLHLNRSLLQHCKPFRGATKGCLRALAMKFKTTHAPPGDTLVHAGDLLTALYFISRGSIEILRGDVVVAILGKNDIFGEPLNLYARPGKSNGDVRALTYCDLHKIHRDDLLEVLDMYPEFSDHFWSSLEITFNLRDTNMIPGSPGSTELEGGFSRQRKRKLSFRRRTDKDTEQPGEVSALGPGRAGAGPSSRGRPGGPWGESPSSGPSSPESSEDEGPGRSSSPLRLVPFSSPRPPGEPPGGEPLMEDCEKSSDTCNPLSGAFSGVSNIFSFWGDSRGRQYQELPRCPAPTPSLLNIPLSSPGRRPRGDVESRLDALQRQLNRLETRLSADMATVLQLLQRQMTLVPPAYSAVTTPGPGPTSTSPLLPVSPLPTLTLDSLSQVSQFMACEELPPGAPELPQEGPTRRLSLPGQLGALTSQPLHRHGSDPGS

[10] = target: T6, 5-hydroxytryptamine receptor 2A (Homo sapiens, UniProt P28223); assay: Inhibition of 5HT2A (unknown origin)
T6 sequence (P28223 whole entry): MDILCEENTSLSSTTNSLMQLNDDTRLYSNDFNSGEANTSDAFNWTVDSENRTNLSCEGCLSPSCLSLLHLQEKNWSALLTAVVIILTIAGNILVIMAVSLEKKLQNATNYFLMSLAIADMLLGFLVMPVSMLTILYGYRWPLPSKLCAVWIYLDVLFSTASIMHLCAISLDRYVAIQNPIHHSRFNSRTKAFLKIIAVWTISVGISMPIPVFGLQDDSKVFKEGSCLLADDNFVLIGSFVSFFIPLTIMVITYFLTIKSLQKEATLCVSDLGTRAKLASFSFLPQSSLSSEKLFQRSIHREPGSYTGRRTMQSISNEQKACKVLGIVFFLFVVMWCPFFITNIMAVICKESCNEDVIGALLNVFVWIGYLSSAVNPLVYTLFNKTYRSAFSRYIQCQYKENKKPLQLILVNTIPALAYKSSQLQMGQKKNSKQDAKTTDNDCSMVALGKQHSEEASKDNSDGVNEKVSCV

[11] = Drug distribution in rat liver at 5 mg/kg, po; type: ADME, organism-based; settings: in vivo
[12] = target: T6, 5-hydroxytryptamine receptor 2A; assay: Inhibition of 5HT2A (unknown origin) relative to control; settings: concentration not given here
[13] = target: T1, Glucagon-like peptide 1 receptor; assay: Agonist activity at GLP-1R (unknown origin) assessed as beta-arrestin 1 recruitment; type: functional
hERG (KCNH2) [14] = target: T5, hERG (KCNH2); assay: Inhibition of human ERG at 10 uM by whole cell patch clamp method relative to control; type: toxicity
Macaca mulatta = organism: Macaca mulatta; assay: Activation of monkey GLP-1R; settings: filed as activator
[15] = Drug distribution in rat intestine at 5 mg/kg, po; type: ADME, organism-based; settings: in vivo
[16] = Apparent volume of distribution in ICR mouse at 2 mg/kg, iv by LC-MS/MS analysis; type: ADME, organism-based; settings: in vivo, read-out: Vz
Cytochrome P450 3A4 [17] = target: T4, Cytochrome P450 3A4; assay: Inhibition of CYP3A4 in human liver microsomes using midazolam as substrate preincubated for 5 mins followed by NADPH addition and measured after 5 mins by LC-MS/MS analysis; type: ADME, Microsome
[18] = target: T1, Glucagon-like peptide 1 receptor; assay: Activation of human GLP-1R; settings: filed as activator
[19] = Cmax in cynomolgus monkey at 20 mg/kg, po; type: ADME, organism-based, Macaca fascicularis; settings: in vivo
[20] = target: T7, 5-hydroxytryptamine receptor 1A (Homo sapiens) (UniProt P08908); assay: Inhibition of 5HT1A (unknown origin) relative to control; settings: concentration not given here
T7 sequence (whole entry): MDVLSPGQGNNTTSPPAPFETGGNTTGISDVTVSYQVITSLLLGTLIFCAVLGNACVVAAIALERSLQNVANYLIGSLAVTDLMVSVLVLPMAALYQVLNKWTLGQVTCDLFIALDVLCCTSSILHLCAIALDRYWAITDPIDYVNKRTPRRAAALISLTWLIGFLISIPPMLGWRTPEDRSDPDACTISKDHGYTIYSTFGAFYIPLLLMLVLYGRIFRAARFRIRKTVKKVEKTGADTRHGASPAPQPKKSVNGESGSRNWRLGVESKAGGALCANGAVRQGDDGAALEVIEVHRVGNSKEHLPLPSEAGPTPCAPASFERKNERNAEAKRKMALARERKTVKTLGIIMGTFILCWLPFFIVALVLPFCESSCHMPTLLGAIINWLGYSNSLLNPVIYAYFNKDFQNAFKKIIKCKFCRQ

[21] = target: T8, 5-hydroxytryptamine receptor 1A (Homo sapiens, UniProt P08908); assay: Inhibition of 5HT1A (unknown origin)
T8 sequence (P08908 whole entry): T7 sequence (whole entry)

In the case of `O=C(O)c1ccc2nc(CN3CCC(c4cccc(OCc5ccc(C6COC6)cc5F)n4)CC3)n(C[C@@H]3CCO3)c2c1`, the AUC [1] is reported as 3 µg·h/mL, the Drug uptake [2] is reported as “Active” and the efflux ratio [3] is reported as 5.26. The Activity [4] was “inactive”, the Activity (Mus musculus) was “Active” and the Activity [5] was “inactive”. For the same molecule, the Cmax [6] was 2.09 µg/mL, the Activity [7] was “inactive” and the IC50 (Cytochrome P450 3A4 [8]) was greater than 10 µM. The inhibition at 1 µM (hERG (KCNH2) [9]) was 3.75%, the IC50 [10] was 8.76 µM and the Drug uptake [11] was “Active”. For the same molecule, the inhibition [12] was 57.8%, the Activity [13] was “inactive” and the inhibition at 10 µM (hERG (KCNH2) [14]) was 40.7%. For the same molecule, the Activity (Macaca mulatta) was “Active”, the Drug uptake [15] was “Active” and the Vd [16] was 12.2 L/kg. The IC50 (Cytochrome P450 3A4 [17]) was greater than 10 µM and the Activity [18] was “Active”.

For `N#Cc1ccc(COc2cccc(C3CCN(Cc4nc5ccc(C(=O)O)cc5n4C[C@@H]4CCO4)CC3)n2)c(F)c1` [DANUGLIPRON], the AUC [1] was 2.28 µg·h/mL, the Cmax [19] was 163 µM and the Activity (Mus musculus) was “Active”. For the same molecule, the Cmax [6] was 2.84 µg/mL, the IC50 (Cytochrome P450 3A4 [8]) was greater than 10 µM and the inhibition [20] was 86.9%. It also gave a Vd [16] of 4.26 L/kg, an IC50 (Cytochrome P450 3A4 [17]) greater than 10 µM and an IC50 [21] of 2.42 µM.
